Measured values taken from patent US20260198495A1, “BINARY INSECTICIDE COMPOSITION AND USE THEREOF” (SHENYANG SINOCHEM AGROCHEMICALS R & D CO., LTD., priority 2022, published 2026).

Columns and labels:
Format in all cases: in vivo
[1] = system: 3rd-instar larvae of Spodoptera frugiperda; assay: Joint toxicity of I-72 + indoxacarb, corn leaf dipping, Example 3, Table 3; conditions: Spodoptera frugiperda, foliar, 72 h, A = compound I-72, B = indoxacarb, read-out: LC50
Text: Test subject: 3rd-instar larvae of Spodoptera frugiperda, a sensitive strain reared indoors.
Experimental method: the dipping method was adopted. The corn leaves cultivated in the greenhouse were taken, cut into leaf segments of 5 cm long, dipped in the prepared pesticide solution for 10 s, and then cut into small pieces of 1.5 cm×1.5 cm after natural air-drying in the shade. These pieces were placed in a 24-well culture plate, and the standard test insects were introduced, with 48 insects for each treatment. The treated test insects were placed in an observation room under certain conditions. The reaction of the test insects was regularly observed, and the number of dead and live insects was investigated 72 h later.
(§1) The test conditions, the preparation method of the pesticide solution, and the evaluation method (Sun Y-P) for the joint action type of the mixture were the same as those in Example 1.

[2] = system: 3rd-instar larvae of Pyrausta nubilalis Hubern; assay: Joint toxicity of I-72 + metaflumizone, artificial diet-pesticide film, Example 2, Table 2; conditions: Ostrinia nubilalis, 72 h, A = compound I-72, B = metaflumizone, read-out: LC50
Experimental: Test subject: 3rd-instar larvae of Pyrausta nubilalis Hubern, a sensitive strain reared indoors.
Experimental method: the artificial diet-pesticide film method was adopted. A standard clean 24-well culture plate was selected. 1 ml of artificial diet was added to each well. After the diet cooled and solidified, a quantitative amount of a pesticide solution was added to the culture plate using a continuous sampler, and then it was air-dried naturally in the shade. The standard test insects were introduced, with 1 insect in each well, a total of 48 insects. The treated test insects were placed in an observation room under certain conditions. The reaction of the test insects was regularly observed, and the number of dead and live insects was investigated 72 h later.
as §1

[3] = system: Frankliniella occidentalis Pergande; assay: Joint toxicity of I-72 + organophosphorus insecticides, leaf dipping, Example 14, Table 14; conditions: foliar, kidney bean leaf dipping, 48 h, A = compound I-72, B = triazophos, read-out: LC50
Text: Test target: Frankliniella occidentalis Pergande, a sensitive strain reared indoors.
Experimental method: first, kidney bean leaves were selected and dipped in the prepared pesticide solution for 10 s in the order from low dosage to high dosage according to the experimental design. After natural air-drying in the shade, they were placed in a 9-cm-diameter Petri dish with filter paper, and uniform and healthy test insects were introduced, with about 20 insects for each treatment and 3 replicates for each treatment. In addition, a blank control was set up.

[4] = system: 3rd-instar larvae of Plutella xylostella; assay: Joint toxicity of I-72 + metaflumizone, airbrush spraying, Example 4, Table 4; conditions: Plutella xylostella, foliar, airbrush spraying of cabbage leaf disks, 72 h, A = compound I-72, B = metaflumizone, read-out: LC50
Experimental: Test target: 3rd-instar larvae of Plutella xylostella, a sensitive strain reared indoors.
Test conditions: temperature: 25-27° C., humidity: RH 60%, and illumination: L:D=14:10
Experimental method: the airbrush spraying method was adopted. The cabbage cultivated in the greenhouse was taken and made into leaf disks with a diameter of 3 cm. After uniform spraying treatment with an airbrush manual sprayer, the leaf disks were placed in a 9-cm Petri dish lined with filter paper. After natural air-drying in the shade, the standard test insects were introduced, and the number of dead and live insects was investigated 72 h later.
The preparation of the pesticide solution and the evaluation method (Sun Y-P) for the joint action type of the mixture were the same as those in Example 1.

[5] = system: adult Phyllotreta vittuta Fabr.; assay: Joint toxicity of I-72 + deltamethrin, Example 45, Table 45; conditions: A = compound I-72, B = deltamethrin; potted cabbage seedling spraying; 72 hours; read-out: LC50
Experimental: Test target: adult Phyllotreta vittuta Fabr.
(§2) Preparation of the pesticide solution: according to different test requirements, the test samples were accurately weighed respectively with an electronic analytical balance. The technical pesticides were dissolved in acetone, and then diluted with 0.1% Tween 80 water into a series of pesticide solutions with a certain concentration gradient according to the experimental design dosage.
Experimental method: first, uniform and consistent potted cabbage seedlings were selected. Then, uniform spraying was performed with the pesticide solution in the order from low dosage to high dosage according to the experimental design. After air-drying in the shade, adult flea beetles were transferred onto the treated cabbage seedlings, and then glass covers were put on them, with about 30-40 adult flea beetles on each seedling and 3 replicates for each treatment. In addition, a blank control was set up.
(§3) The treated test materials were placed in an observation room, and the temperature, humidity and illumination of the observation room could be adjusted as needed. The number of dead and live insects was investigated 72 hours later. […] Then, the co-toxicity coefficient of each ratio was calculated using the Sun Y-P method to evaluate the mixing effect (the same as in Example 1).

[6] = system: Bemisia tabaci (Gennadius) nymphs; assay: Joint toxicity of I-72 + pyrifluquinazon, Example 77, Table 77; conditions: Bemisia tabaci; A = compound I-72, B = pyrifluquinazon; cotton leaf-disk spraying; 96 hours; read-out: LC50
Experimental: Test target: Bemisia tabaci (Gennadius) nymphs, a sensitive strain reared indoors.
as §2
(§4) Experimental method: first, cotton leaves with neat and consistent Bemisia tabaci (Gennadius) nymphs were selected and made into leaf disks, with about 20 insects on each leaf disk. Then, they were evenly sprayed with the pesticide solution in the order from low dosage to high dosage according to the experimental design, with 1.5 mL for each leaf and 3 replicates for each treatment. In addition, a blank control was set up.
as §3, with “96” for “72”

[7] = system: Aphis gossypii Glover nymphs; assay: Joint toxicity of I-72 + organophosphorus insecticides, cotton leaf spraying, Example 17, Table 17; conditions: nymphs, cotton leaf spraying, 48 h, A = compound I-72, B = diazinon, read-out: LC50
Experimental: Test target: Aphis gossypii Glover nymphs, a sensitive strain reared indoors.
as §2
as §4, with “uniform” for “neat”, “Aphis gossypii” for “Bemisia tabaci (Gennadius) nymphs”, “selected,” for “selected and made into leaf disks,”, “leaf.” for “leaf disk.”
The treated test materials were placed in an observation room, and the temperature, humidity and illumination of the observation room could be adjusted as needed. The number of dead and live insects was investigated 48 hours later. The corrected mortality rate was calculated using the Abbott's formula, and statistical analysis was performed with the DPS data processing software to obtain the toxicity regression equation, LC50 value and 95% confidence limit of each single test pesticide and each mixture of different ratios. Then, the co-toxicity coefficient of each ratio was calculated using the Sun Y-P method to evaluate the mixing effect (the same as in Example 1).

[8] = system: Myzus persicae (Sulzer) nymphs; assay: Joint toxicity of I-72 + cyantraniliprole, Example 59, Table 59; conditions: A = compound I-72, B = cyantraniliprole, cabbage leaf spraying, 48 hours, read-out: LC50
Experimental: Test target: Myzus persicae (Sulzer) nymphs, a sensitive strain reared indoors.
as §2
Experimental method: first, cabbage leaves with uniform and consistent Myzus persicae (Sulzer) were selected, with about 30-40 insects on each leaf. Then, they were evenly sprayed with the pesticide solution in the order from low dosage to high dosage according to the experimental design, with 1.5 mL of the solution for each leaf and 3 replicates for each treatment. In addition, a blank control was set up.
as §3, with “48” for “72”

## CN(C(=O)c1ccc2c(c1)OC(F)(F)O2)c1cccc(C(=O)Nc2c(Br)cc(C(F)(C(F)(F)F)C(F)(F)F)cc2OC(F)F)c1F [Compound I-72]
[1]
  LC50: 0.0737 µg/mL
[2]
  LC50: 0.67 µg/mL
[3]
  LC50: 3.13 µg/mL
[4]
  LC50: 0.0867 µg/mL
[5]
  LC50: 1.24 µg/mL
[6]
  LC50: 10.8 µg/mL
[7]
  LC50: 2.83 µg/mL
[8]
  LC50: 8.14 µg/mL
